From US8227502B2, “Amides acting on the adenosine receptors” (Anamar AB, priority 2006, dated 2012) come the findings set out here.

pIC50, pKi: −log10 of the molar value.

The target of one assay is T1, adenosine A2A receptor (Homo sapiens, UniProt P29274).
T1 construct: from tissue
As to the kind of experiment: Affinity for adenosine A2A receptor ([3H]CGS21680 binding, per Varani et al.). An excerpt:
The affinity and functionality towards the adenosine A2A receptor was essentially performed as described by Varani et al. (Varani, Pharmacological and biochemical characterization of purified A2A adenosine receptors in human platelet membranes by [^3H]CGS21680 binding, Br. J. Pharmacol. 117:1693-1701, 1996), Table 1.

Assay [1] has as its system antigen induced arthritis. As to the kind of experiment: Antigen induced arthritis (AIA), knee joint swelling. The format is in vivo. The note with it: rat, per oral administration, FIG. 1. An excerpt:
Antigen Induced Arthritis (AIA) in the rat is a well reproducible monoarthritis model. An intraarticular injection of the antigen methylated bovine serum albumin (mBSA) in the knee joint in sensitised animals induces an inflammatory response. The formation of pannus tissue, which invades the synovium, spreads over the articular cartilage and grows into the bone, leading to tissue erosion and remodeling.
AIA responds well to compounds used for standard clinical treatment of human arthritis. Therefore this model is appropriate for the evaluation of the effects of new compounds on joint inflammation and cartilage/bone degradation. The test compounds can be administered locally or systemically. The features of the arthritis can be followed and evaluated by measuring knee joint swelling, by functional scoring and histological analysis. Since it is a monoarthritis model, the level of inflammatory serum markers may be difficult to detect. The AIA model also serves as a source for the production of synoviocytes for in vitro culturing, in order to gain further insight in the synovial matrix composition and for drug screening purposes.
In Antigen induced arthritis—for the effect on knee diameter of Compound 1:16 after per oral administration—see FIG. 1.

T1 sequence (P29274 whole entry): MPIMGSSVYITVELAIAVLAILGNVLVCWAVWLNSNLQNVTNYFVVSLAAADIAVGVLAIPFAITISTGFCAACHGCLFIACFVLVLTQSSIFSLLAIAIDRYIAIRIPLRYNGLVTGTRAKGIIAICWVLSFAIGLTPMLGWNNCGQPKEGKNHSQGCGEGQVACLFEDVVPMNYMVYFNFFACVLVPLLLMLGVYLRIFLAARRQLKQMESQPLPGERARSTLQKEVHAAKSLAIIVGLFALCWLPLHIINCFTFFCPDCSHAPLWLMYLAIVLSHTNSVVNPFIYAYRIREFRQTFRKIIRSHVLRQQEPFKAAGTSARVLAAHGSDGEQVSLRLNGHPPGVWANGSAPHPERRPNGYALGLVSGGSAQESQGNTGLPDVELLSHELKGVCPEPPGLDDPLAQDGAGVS

For `NCCC(=O)N(CCc1c[nH]c2ccccc12)C(C(=O)NC1CCCCC1)c1ccccc1Br` (centres unmarked) [1:02, 3-Amino-N-[(2-bromo-phenyl)-cyclohexylcarbamoyl-methyl]-N-[2-(1H-indol-3-yl)-ethyl]-propionamide], the pKi on adenosine A2A receptor is 6.00.

At adenosine A2A receptor, `NCCC(=O)N(CCc1c[nH]c2ccccc12)C(C(=O)NC1CCCCC1)c1ccc(Br)cc1Br` (centres unmarked) [1:04, 3-Amino-N-[cyclohexylcarbamoyl-(2,4-dibromo-phenyl)-methyl]-N-[2-(1H-indol-3-yl)-ethyl]-propionamide] gave a pIC50 of 5.55 and a pKi of 5.80.

At adenosine A2A receptor, `NCCC(=O)N(CCc1c[nH]c2ccccc12)C(C(=O)NCc1ccccc1)c1ccc(Br)cc1Br` (centres unmarked) [1:09, 3-Amino-N-[benzylcarbamoyl-(2,4-dibromo-phenyl)-methyl]-N-[2-(1H-indol-3-yl)-ethyl]-propionamide] had a pIC50 of 5.29 and a pKi of 5.54.

On adenosine A2A receptor, `NCCC(=O)N(CCc1c[nH]c2ccccc12)C(C(=O)Nc1ccccc1)c1ccccc1Br` (centres unmarked) [1:13, 3-Amino-N-[(2-bromo-phenyl)-phenylcarbamoyl-methyl]-N-[2-(1H-indol-3-yl)-ethyl]-propionamide] had a pKi of 7.22.

For the compound `NCCC(=O)N(CCc1c[nH]c2ccccc12)C(C(=O)Nc1ccccc1)c1ccc(Br)cc1` (centres unmarked) [1:15, 3-Amino-N-[(4-bromo-phenyl)-phenylcarbamoyl-methyl]-N-[2-(1H-indol-3-yl)-ethyl]-propionamide], at adenosine A2A receptor, the pIC50 was 6.61 and the pKi was 6.87.

With `NCCC(=O)N(CCc1c[nH]c2ccccc12)C(C(=O)Nc1ccccc1)c1ccc(Br)cc1Br` (centres unmarked) [Compound 1:16, 3-Amino-N-[(2,4-dibromo-phenyl)-phenylcarbamoyl-methyl]-N-[2-(1H-indol-3-yl)-ethyl]-propionamide], at adenosine A2A receptor, the negative logarithm of the IC50 (pIC50) is 7.51 and the negative logarithm of the Ki (pKi) is 7.76. Moreover, the “swelling of the knee (knee diameter)” value in assay [1] is “reduced the swelling of the knee”.
